Measured values taken from patent US20100144759A1, “NOVEL N-(FLUORO-PYRAZINYL)-PHENYLSULFONAMIDES AS MODULATORS OF CHEMOKINE RECEPTOR CCR4” (AstraZeneca AB, priority 2005, published 2010).

Test system: salmonella typhimurium LT2 strains TA98 and TA100
Test: Metabolite testing: mutagenicity (Maron and Ames test)
Format: cell-based
Conditions: strains TA98 and TA100, with or without metabolic activation (rat liver S9)
Experimental: 5-Fluoro-3-methoxy-2-pyrazinamine and 6-fluoro-3-methoxy-2-pyrazinamine were tested for mutagenicity according to the test procedure of Maron and Ames described in Mutation Res. 1983; 113:173-215 using salmonella typhimurium LT2 strains TA98 and TA100. For metabolic activation a homogenate of liver from Aroclor 1254-treated rats (post-mitochondrial fraction (S9) purchased from Molecular Toxicology Inc., Boone, N.C., USA) was added to agar plates (without histidine) together with the test compound and the bacterial tester strains; the complete activation system employed was: phosphate buffer (0.1 mol/L, pH 7.4):100 mmol/L; magnesium chloride: 8 mmol/L; potassium chloride: 33 mmol/L; nicotinamide adenine dinucleotide phosphate: 4 mmol/L; glucose-6-phosphate:5 mmol/L; and rat liver homogenate (S9 fraction):10% v/v. The mean number of revertant colonies and sample standard deviation (from control plates) were calculated for each test group. A test compound was considered to be mutagenic when the following criteria were satisfied: i) the number of revertant colonies in any strain increased in the presence of one or more dose of the test compound, with or without metabolic activation ii) there was a dose-related increase in the number of revertant colonies, and iii) any increase was reproducible.

| SMILES | mutagenicity test result |
| --- | --- |
| COc1nc(F)cnc1N [5-fluoro-3-methoxy-2-pyrazinamine, 5-Fluoro-3-methoxy-2-pyrazinamine] | negative |
| COc1ncc(F)nc1N [6-fluoro-3-methoxy-2-pyrazinamine] | negative |

Test system: not listed separately
Test: Measurement of plasma protein binding (equilibrium dialysis)
Format: in vitro ADME
Conditions: pooled human plasma, human plasma vs buffer pH 7.4, 37° C., 10 μM compound, read-out: % Bound Human Plasma (converted)
Experimental: The extent of plasma protein binding was determined via equilibrium dialysis of a compound between human plasma and aqueous buffer at 37° C. and determination of the concentration of compound in the plasma and buffer by HPLC-MS/MS.
Dialysis cells (molecular weight cut-off 5000) were prepared by rinsing with water followed by soaking in the dialysis buffer for a minimum of 1 hour. The dialysis buffer was isotonic buffered saline pH 7.4. Stock solutions of compound in dimethylsulphoxide were prepared at a concentration of 1 mM. Frozen pooled Human plasma was obtained from volunteers.
The stock DMSO solution of a compound was added to the plasma at a ratio of 10 μl of DMSO to each ml of plasma.
Dialysis cells were then prepared and one half of the cell filled with 750 μl of dialysis buffer and the other half of the cell with 750 μl of plasma solution of compound. Once prepared the cells were sealed and immersed in a water bath at 37° C. These cells were then rotated for a minimum of 4 hours to equilibrate.
After equilibration 500 μl of the buffer samples were removed and added to HPLC vials along with 100 μl of plasma (sample in 6-fold diluted plasma), and 100 μl of the plasma samples were removed and added to HPLC vials along with 500 μl of dialysis buffer (sample in 6-fold diluted plasma).
The samples were then analysed using HPLC-MS/MS.
The concentration of compound in the samples were determined using MassLynx version 4.0 software (produced by Waters/Micromass) that automatically calculated a calibration curve and the concentration of compound in the cells. Plasma protein binding was determined from the calibration curve as the percentage of compound bound in human plasma (% bound) using the following equation wherein the factor in the numerator accounts for the small dilution of the aqueous samples with plasma and the factor of 6 in the denominator serves to correct for the 6-fold dilution of the plasma samples with buffer;

| fraction unbound at 10 µM | SMILES |
| --- | --- |
| 0.002 | COc1nc(Br)cnc1NS(=O)(=O)c1cccc(Cl)c1Cl [Ex. 8 WO03/059893, 2,3-dichloro-N-(5-bromo-3-methoxy-2-pyrazinyl)benzenesulphonamide, reference compound] |
| 0.01 | COc1nc(F)cnc1NS(=O)(=O)c1cccc(F)c1Cl [Example 1, 2-Chloro-3-fluoro-N-(5-fluoro-3-methoxypyrazin-2-yl)-benzenesulfonamide] |
| 0.003 | COc1ncc(F)nc1NS(=O)(=O)c1cccc(Cl)c1Cl [Example 3, 2,3-Dichloro-N-(6-fluoro-3-methoxypyrazin-2-yl)-benzenesulfonamide] |
| 0.011 | COc1nc(F)cnc1NS(=O)(=O)c1cccc(Cl)c1F [Example 5, 3-Chloro-2-fluoro-N-(5-fluoro-3-methoxypyrazin-2-yl)-benzenesulfonamide] |
| 0.004 | COc1nc(F)cnc1NS(=O)(=O)c1cccc(Cl)c1C [Example 7, 3-Chloro-N-(5-fluoro-3-methoxypyrazin-2-yl)-2-methyl-benzenesulfonamide] |

More lines, now with the values behind:

| SMILES | fraction unbound at 10 µM |
| --- | --- |
| COc1nc(Cl)cnc1NS(=O)(=O)c1cccc(Cl)c1Cl [Ex. 5 WO03/059893, 2,3-dichloro-N-(5-chloro-3-methoxy-2-pyrazinyl)benzenesulphonamide, reference compound] | 0.002 |
| COc1nccnc1NS(=O)(=O)c1cccc(Cl)c1Cl [Ex. 30 WO03/059893, 2,3-dichloro-N-(3-methoxy-2-pyrazinyl)benzenesulphonamide, reference compound] | 0.011 |
| COc1nc(F)cnc1NS(=O)(=O)c1cccc(Cl)c1Cl [Example 2, 2,3-dichloro-N-(5-fluoro-3-methoxypyrazin-2-yl)-benzenesulfonamide] | 0.006 |
| COc1nc(CO)c(F)nc1NS(=O)(=O)c1cccc(Cl)c1Cl [Example 4, 2,3-Dichloro-N-[6-fluoro-5-(hydroxymethyl)-3-methoxypyrazin-2-yl]-benzenesulfonamide] | 0.013 |
| COc1nc(F)c(CO)nc1NS(=O)(=O)c1cccc(Cl)c1Cl [Example 6, 2,3-Dichloro-N-[5-fluoro-6-(hydroxymethyl)-3-methoxypyrazin-2-yl]-benzenesulfonamide] | 0.005 |

Molecular target: T1, CCR4 (Homo sapiens, UniProt P51679)
T1 construct: host or cells: CHO-K1
T1 sequence (P51679 1-360): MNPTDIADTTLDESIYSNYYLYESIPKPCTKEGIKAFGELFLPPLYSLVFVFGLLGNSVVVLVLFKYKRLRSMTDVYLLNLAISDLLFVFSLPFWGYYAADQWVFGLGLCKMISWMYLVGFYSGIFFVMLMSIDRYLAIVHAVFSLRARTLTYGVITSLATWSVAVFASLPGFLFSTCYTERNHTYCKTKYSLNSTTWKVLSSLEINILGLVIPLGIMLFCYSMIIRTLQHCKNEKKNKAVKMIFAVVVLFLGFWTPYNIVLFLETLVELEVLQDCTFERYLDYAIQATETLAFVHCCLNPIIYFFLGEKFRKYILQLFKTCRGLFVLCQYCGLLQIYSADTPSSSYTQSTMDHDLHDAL
Test: Predicted whole blood potency
Conditions: calculated: CCR4 pIC50+Log((100−% Bound)/100)
Experimental: Predicted whole blood potency is a measure of the combined effects of CCR4 activity and plasma protein binding, and is calculated by the formula: Whole Blood Potency=CCR4 pIC50+Log((100−% Bound)/100).

| Whole Blood Potency | SMILES |
| --- | --- |
| 5.6 | COc1nc(Br)cnc1NS(=O)(=O)c1cccc(Cl)c1Cl [Ex. 8 WO03/059893, 2,3-dichloro-N-(5-bromo-3-methoxy-2-pyrazinyl)benzenesulphonamide, reference compound] |
| 6.3 | COc1nc(F)cnc1NS(=O)(=O)c1cccc(F)c1Cl [Example 1, 2-Chloro-3-fluoro-N-(5-fluoro-3-methoxypyrazin-2-yl)-benzenesulfonamide] |
| 6.0 | COc1ncc(F)nc1NS(=O)(=O)c1cccc(Cl)c1Cl [Example 3, 2,3-Dichloro-N-(6-fluoro-3-methoxypyrazin-2-yl)-benzenesulfonamide] |
| 6.0 | COc1nc(F)cnc1NS(=O)(=O)c1cccc(Cl)c1F [Example 5, 3-Chloro-2-fluoro-N-(5-fluoro-3-methoxypyrazin-2-yl)-benzenesulfonamide] |
| 6.0 | COc1nc(F)cnc1NS(=O)(=O)c1cccc(Cl)c1C [Example 7, 3-Chloro-N-(5-fluoro-3-methoxypyrazin-2-yl)-2-methyl-benzenesulfonamide] |

Second part, the molecule before the results:

| SMILES | Whole Blood Potency |
| --- | --- |
| COc1nc(Cl)cnc1NS(=O)(=O)c1cccc(Cl)c1Cl [Ex. 5 WO03/059893, 2,3-dichloro-N-(5-chloro-3-methoxy-2-pyrazinyl)benzenesulphonamide, reference compound] | 5.2 |
| COc1nccnc1NS(=O)(=O)c1cccc(Cl)c1Cl [Ex. 30 WO03/059893, 2,3-dichloro-N-(3-methoxy-2-pyrazinyl)benzenesulphonamide, reference compound] | 5.7 |
| COc1nc(F)cnc1NS(=O)(=O)c1cccc(Cl)c1Cl [Example 2, 2,3-dichloro-N-(5-fluoro-3-methoxypyrazin-2-yl)-benzenesulfonamide] | 6.3 |
| COc1nc(CO)c(F)nc1NS(=O)(=O)c1cccc(Cl)c1Cl [Example 4, 2,3-Dichloro-N-[6-fluoro-5-(hydroxymethyl)-3-methoxypyrazin-2-yl]-benzenesulfonamide] | 5.9 |
| COc1nc(F)c(CO)nc1NS(=O)(=O)c1cccc(Cl)c1Cl [Example 6, 2,3-Dichloro-N-[5-fluoro-6-(hydroxymethyl)-3-methoxypyrazin-2-yl]-benzenesulfonamide] | 5.9 |

Molecular target: T1, CCR4
Test: FMAT whole cell binding assay
Conditions: CHO-K1 cells expressing human recombinant CCR4; inhibition of FB-MDC binding; read-out: FMAT CCR4 pIC50 (converted)
Experimental: CHO-K1 cells stably expressing the human recombinant CCR4 receptor (Euroscreen; Brussels, Belgium) were cultured in NUT.MIX.F—12(HAM) medium with glutamax-1, containing 10% (v/v) foetal bovine serum and 400 μg ml^−1 geneticin.
Cells were harvested at approximately 70% confluence by treatment with a cell dissociation buffer, and seeded at 5×10^3 cells/100 μl culture medium into wells of a black Costar clear-bottomed 96-well microtitre plates. Plates were incubated overnight at 37° C. in 5% CO2 and used the following day.
Before use, the cell plates were washed twice with 100 μl Hanks balanced salt solution (HBSS).
After two hours incubation in the dark at room temperature, the plates were analysed in an FMAT8100 reader (Applied Biosystems) to measure fluorescence that was associated with binding of FB-MDC to the cells.

| IC50 [nM] | SMILES |
| --- | --- |
| 5.01 | COc1nc(Br)cnc1NS(=O)(=O)c1cccc(Cl)c1Cl [Ex. 8 WO03/059893, 2,3-dichloro-N-(5-bromo-3-methoxy-2-pyrazinyl)benzenesulphonamide, reference compound] |
| 5.01 | COc1nc(F)cnc1NS(=O)(=O)c1cccc(F)c1Cl [Example 1, 2-Chloro-3-fluoro-N-(5-fluoro-3-methoxypyrazin-2-yl)-benzenesulfonamide] |
| 3.16 | COc1ncc(F)nc1NS(=O)(=O)c1cccc(Cl)c1Cl [Example 3, 2,3-Dichloro-N-(6-fluoro-3-methoxypyrazin-2-yl)-benzenesulfonamide] |
| 10 | COc1nc(F)cnc1NS(=O)(=O)c1cccc(Cl)c1F [Example 5, 3-Chloro-2-fluoro-N-(5-fluoro-3-methoxypyrazin-2-yl)-benzenesulfonamide] |
| 3.98 | COc1nc(F)cnc1NS(=O)(=O)c1cccc(Cl)c1C [Example 7, 3-Chloro-N-(5-fluoro-3-methoxypyrazin-2-yl)-2-methyl-benzenesulfonamide] |

More lines, now with the values behind:

| SMILES | IC50 [nM] |
| --- | --- |
| COc1nc(Cl)cnc1NS(=O)(=O)c1cccc(Cl)c1Cl [Ex. 5 WO03/059893, 2,3-dichloro-N-(5-chloro-3-methoxy-2-pyrazinyl)benzenesulphonamide, reference compound] | 12.6 |
| COc1nccnc1NS(=O)(=O)c1cccc(Cl)c1Cl [Ex. 30 WO03/059893, 2,3-dichloro-N-(3-methoxy-2-pyrazinyl)benzenesulphonamide, reference compound] | 20 |
| COc1nc(F)cnc1NS(=O)(=O)c1cccc(Cl)c1Cl [Example 2, 2,3-dichloro-N-(5-fluoro-3-methoxypyrazin-2-yl)-benzenesulfonamide] | 3.16 |
| COc1nc(CO)c(F)nc1NS(=O)(=O)c1cccc(Cl)c1Cl [Example 4, 2,3-Dichloro-N-[6-fluoro-5-(hydroxymethyl)-3-methoxypyrazin-2-yl]-benzenesulfonamide] | 15.8 |
| COc1nc(F)c(CO)nc1NS(=O)(=O)c1cccc(Cl)c1Cl [Example 6, 2,3-Dichloro-N-[5-fluoro-6-(hydroxymethyl)-3-methoxypyrazin-2-yl]-benzenesulfonamide] | 6.31 |
